Measurements reported in patent publication US20200131669A1, “CYCLIC PEPTIDE COMPOUND HAVING HIGH MEMBRANE PERMEABILITY, AND LIBRARY CONTAINING SAME” (Chugai Seiyaku Kabushiki Kaisha, priority 2017, published 2020).
Starred links: 1 amine or outer side, 2 acyl side, 3 side chain; linkers in the order of their positions; H or OH if unused. Positions of bridges follow the written chain, without caps; N, C: chain ends. Non-standard residues stand in square brackets, D forms with d. Residues, ends and D or L forms follow the SMILES beside them. *: point of attachment. X19 = CC(C)[C@@H](C(=O)C[C@H](C(=O)[*:2])[C@@H](C)O)N(C)[*:1]; NMeAbu(4-morpholino) = CN[C@@H](CCN1CCOCC1)C(=O)O; NMePhe(3-Cl) = CN[C@@H](Cc1cccc(Cl)c1)C(=O)O; Tyr(3-F) = N[C@@H](Cc1ccc(O)c(F)c1)C(=O)O; hNle(7,7-F2) = N[C@@H](CCCCC(F)F)C(=O)O; hhPhe = N[C@@H](CCCc1ccccc1)C(=O)O; Hyp = O=C(O)[C@@H]1C[C@@H](O)CN1; NMeF = CN[C@@H](Cc1ccccc1)C(=O)O; NMeD = CN[C@@H](CC(=O)O)C(=O)O; CH2CH(OH)CF3 = OC(C*)C(F)(F)F; NMeL = CN[C@@H](CC(C)C)C(=O)O; Propyl(2R-OH) = C[C@@H](O)C*; NMeNva = CCC[C@H](NC)C(=O)O; NMeV = CN[C@H](C(=O)O)C(C)C; NMeAbu = CC[C@H](NC)C(=O)O; NPentylGly = CCCCCNCC(=O)O; NMeA = CN[C@@H](C)C(=O)O; Piperidide = C1CCN(*)CC1; NBuGly = CCCCNCC(=O)O; Isopentyl = CC(C)CC*; X2 = Fc1cncc(C*)c1; Sar = CNCC(=O)O; tBu = CC(C)(C)*

Test: Caco-2 membrane permeability, improved method as used in the following Examples (96-well, 20 to 24 h preincubation)
Type: in vitro ADME
Conditions: human, Caco-2, Caco-2
In short: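 Caco-2 monolayers were grown three weeks and preincubated 20–24 h at 37 °C with compound in DMEM+FaSSIF (1% DMSO) apically. The assay then used compound in FaSSIF/HBSS (1% DMSO, pH 6.0) apically and HBSS with 4% BSA (pH 7.4) basally. Basal samples were taken at 180 min for LC/MS, and Papp (cm/sec) was calculated.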
In the case of `CCCCN1CC(=O)N(C)[C@@H](CC(C)C)C(=O)N[C@@H](COC(C)(C)C)C(=O)N(C)[C@@H](Cc2ccccc2)C(=O)N(C)[C@@H](C(C)C)C(=O)N[C@H](C(=O)N2CCCCC2)CC(=O)N[C@H](CC(C)C)C(=O)N(C)[C@@H](Cc2ccccc2)C(=O)N[C@@H](CC(C)C)C(=O)N(C)[C@@H](CCN2CCOCC2)C(=O)N[C@@H]([C@@H](C)O)C1=O` [pd452] ([dL][NMeF]L[NMeAbu(4-morpholino)]T[NBuGly][NMeL]S(tBu)[NMeF][NMeV]D-Piperidide; lactam N-11), the Papp A→B at 180 min is reported as 1.3 ×10⁻⁶ cm/s.
`CC[C@H](C)[C@@H]1NC(=O)[C@H](CC(C)C)N(C)C(=O)[C@H](COCC(O)C(F)(F)F)NC(=O)[C@H](Cc2ccccc2)N(C)C(=O)CN(C)C(=O)C[C@@H](C(=O)N2CCCCC2)NC(=O)[C@H](CC(C)C)N(C)C(=O)[C@H](COC(C)(C)C)NC(=O)[C@H](CC(C)C)N(C)C(=O)[C@H](Cc2ccccc2)N(C)C(=O)CN(C)C1=O` (stereo partly drawn) [pd504] ([Sar][NMeF]S(CH2CH(OH)CF3)[NMeL]I[Sar][NMeF][NMeL]S(tBu)[NMeL]D-Piperidide; lactam N-11) gave a Papp A→B at 180 min of 4.1 ×10⁻⁶ cm/s.
Work on `CCCCCN1CC(=O)N(C)[C@@H](CC(C)C)C(=O)N[C@H](C(=O)N2CCCCC2)CC(=O)N(C)[C@@H](C(C)C)C(=O)N[C@@H](CC(C)C)C(=O)N(C)[C@@H](CC)C(=O)N(C)[C@@H](Cc2ccccc2)C(=O)N[C@@H](C)C(=O)N(C)[C@@H](Cc2ccccc2)C(=O)N(C)[C@@H](CC)C(=O)N[C@@H]([C@@H](C)O)C1=O` [pd403] ([NMeV]L[NMeAbu][NMeF]A[NMeF][NMeAbu]T[NPentylGly][NMeL]D-Piperidide; lactam N-11) yielded a Papp A→B at 180 min of 9 ×10⁻⁶ cm/s.
`CC(C)C[C@H]1C(=O)N[C@@H](COC(C)(C)C)C(=O)N(C)[C@@H](Cc2ccccc2)C(=O)N(C)[C@@H](C(C)C)C(=O)N[C@H](C(=O)N2CCCCC2)CC(=O)N[C@H](C(C)C)C(=O)N(C)[C@@H](Cc2ccccc2)C(=O)N[C@@H](COCc2cncc(F)c2)C(=O)N(C)[C@@H](CC(C)C)C(=O)N[C@@H]([C@@H](C)O)C(=O)N(C)CC(=O)N1C` [pd346] ([dV][NMeF]S(X2)[NMeL]T[Sar][NMeL]S(tBu)[NMeF][NMeV]D-Piperidide; lactam N-11) gave a Papp A→B at 180 min of 2.4 ×10⁻⁶ cm/s.
For `CC(C)CCOC[C@@H]1NC(=O)[C@H](CC(C)C)N(C)C(=O)[C@H](Cc2ccccc2)N(C)C(=O)CN(C)C(=O)[C@H]([C@@H](C)O)NC(=O)[C@H](CC(C)C)N(C)C(=O)[C@H](CCCCC(F)F)NC(=O)[C@H](Cc2ccccc2)N(C)C(=O)CN(C)C(=O)C[C@@H](C(=O)N2CCCCC2)NC(=O)[C@H](CC(C)C)N(C)C1=O` [pd338] ([Sar][NMeF][hNle(7,7-F2)][NMeL]T[Sar][NMeF][NMeL]S(Isopentyl)[NMeL]D-Piperidide; lactam N-11), the Papp A→B at 180 min was 1.8 ×10⁻⁶ cm/s.
`CC(C)C[C@H]1C(=O)N[C@H](C(=O)N2CCCCC2)CC(=O)N(C)[C@@H](C)C(=O)N[C@@H](CCCc2ccccc2)C(=O)N(C)[C@@H](CC(C)C)C(=O)N(C)[C@@H](Cc2ccccc2)C(=O)N[C@@H](C)C(=O)N(C)[C@@H](Cc2ccccc2)C(=O)N(C)[C@@H](C(C)C)C(=O)N[C@@H]([C@@H](C)O)C(=O)N(C)CC(=O)N1C` [pd365] ([NMeA][hhPhe][NMeL][NMeF]A[NMeF][NMeV]T[Sar][NMeL]D-Piperidide; lactam N-11) gave a Papp A→B at 180 min of 1.5 ×10⁻⁶ cm/s.
In the case of `CCO[C@@H]1C[C@H]2C(=O)N(C)[C@@H](CC(C)C)C(=O)N[C@@H]([C@@H](C)O)C(=O)N(C)[C@@H](Cc3ccccc3)C(=O)N[C@@H](Cc3ccccc3)C(=O)N(C)[C@@H](CC(C)C)C(=O)N(C)[C@H](C(=O)N3CCCCC3)CC(=O)N[C@@H](C)C(=O)N(C)[C@@H](C(C)C)C(=O)N[C@@H](COC(C)(C)C)C(=O)N(C)[C@@H](CC(C)C)C(=O)N2C1` [pd373] (A[NMeV]S(tBu)[NMeL][Hyp](Et)[NMeL]T[NMeF]F[NMeL][NMeD]-Piperidide; lactam N-11), the Papp A→B at 180 min is reported as 2 ×10⁻⁶ cm/s.
`CCC[C@H]1C(=O)N[C@@H](COC(C)(C)C)C(=O)N(C)[C@@H](CC(C)C)C(=O)N(C)[C@@H](CC(C)C)C(=O)N[C@@H](CC(C)C)C(=O)N[C@@H]([C@@H](C)O)C(=O)N2C[C@H](OCC)C[C@H]2C(=O)N[C@@H](Cc2ccccc2)C(=O)N(C)[C@@H](CC(C)C)C(=O)N[C@H](C(=O)N2CCCCC2)CC(=O)N[C@H](C(C)C)C(=O)N1C` [pd380] ([dV][NMeNva]S(tBu)[NMeL][NMeL]LT[Hyp](Et)F[NMeL]D-Piperidide; lactam N-11) gave a Papp A→B at 180 min of 3.8 ×10⁻⁶ cm/s.

Same assay, conditions: human, Caco-2, Caco-2 (cm/sec)
`CC(C)C[C@@H]1NC(=O)[C@H](Cc2ccccc2)N(C)C(=O)[C@@H](C(C)C)NC(=O)C[C@@H](C(=O)N2CCCCC2)NC(=O)[C@H](CC(C)C)N(C)C(=O)[C@H](CC(C)C)N(C)C(=O)[C@H](Cc2ccc(O)c(F)c2)NC(=O)[C@H](CC(C)C)N(C)C(=O)CN(C)C(=O)[C@H]([C@@H](C)O)NC(=O)[C@H](CC(C)C)N(C)C1=O` [pd128] ([dV][NMeF]L[NMeL]T[Sar][NMeL][Tyr(3-F)][NMeL][NMeL]D-Piperidide; lactam N-11) showed a Papp A→B at 180 min of 0.17 ×10⁻⁶ cm/s.
For `CC(C)C[C@@H]1NC(=O)[C@H](Cc2cccc(Cl)c2)N(C)C(=O)[C@@H](C)NC(=O)C[C@@H](C(=O)N2CCCCC2)NC(=O)[C@H](CC(C)C)N(C)C(=O)[C@H](Cc2ccccc2)N(C)C(=O)[C@H](COC(C)(C)C)NC(=O)[C@H](C(C)C)N(C)C(=O)CN(C)C(=O)[C@H]([C@@H](C)O)NC(=O)[C@H](CC(C)C)N(C)C1=O` [pd157] ([dA][NMePhe(3-Cl)]L[NMeL]T[Sar][NMeV]S(tBu)[NMeF][NMeL]D-Piperidide; lactam N-11), the Papp A→B at 180 min was 2.2 ×10⁻⁶ cm/s.
With `CC(C)C[C@@H]1NC(=O)[C@H](CC(C)C)N(C)C(=O)[C@H](C)N(C)C(=O)[C@H]([C@@H](C)O)NC(=O)[C@H](CC(C)C)N(C)C(=O)[C@H](COC(C)(C)C)NC(=O)[C@H](Cc2cccc(Cl)c2)N(C)C(=O)[C@H](CC(C)C)NC(=O)[C@H](C(C)C)N(C)C(=O)[C@@H](C(C)C)NC(=O)C[C@@H](C(=O)N2CCCCC2)NC1=O` [pd171] ([dV][NMeV]L[NMePhe(3-Cl)]S(tBu)[NMeL]T[NMeA][NMeL]LD-Piperidide; lactam N-11) the Papp A→B at 180 min was 1.2 ×10⁻⁶ cm/s.
`CC(C)C[C@@H]1NC(=O)[C@H](Cc2ccccc2)N(C)C(=O)[C@H](COC(C)(C)C)NC(=O)[C@H](Cc2ccccc2)N(C)C(=O)[C@H](C)N(C)C(=O)[C@H](CC(C)C)N(C)C(=O)[C@H](C)N(C)C(=O)C[C@@H](C(=O)N2CCCCC2)N(C)C(=O)[C@H](Cc2ccccc2)N(C)C(=O)[C@H]([C@@H](C)O)CC(=O)[C@H](C(C)C)N(C)C1=O` [pd213] ([NMeA][NMeL][NMeA][NMeF]S(tBu)[NMeF]L[X19][NMeF][NMeD]-Piperidide; lactam N-10) showed a Papp A→B at 180 min of 1.3 ×10⁻⁶ cm/s.

Same assay, conditions: human; Papp, Caco-2 membrane permeability, improved method; read-out: Caco-2
`CC(C)C[C@H]1C(=O)N[C@@H](COC(C)(C)C)C(=O)N(C)[C@@H](Cc2ccccc2)C(=O)N(C)[C@@H](CC(C)C)C(=O)N[C@H](C(=O)N2CCCCC2)CC(=O)N[C@@H](C(C)C)C(=O)N(C)[C@@H](Cc2ccccc2)C(=O)N[C@@H](COC[C@@H](C)O)C(=O)N(C)[C@@H](CC(C)C)C(=O)N[C@@H](C(C)C)C(=O)N(C)CC(=O)N1C` [pd492] (V[NMeF]S(Propyl(2R-OH))[NMeL]V[Sar][NMeL]S(tBu)[NMeF][NMeL]D-Piperidide; lactam N-11) showed a Papp A→B at 180 min of 2.5 ×10⁻⁶ cm/s.
